Test results: patent US4994460A, “Agents for treatment of brain ischemia” (Bristol-Myers Squibb Co., priority 1990, dated 1991)
Structures can show the parent of a compound that is named as a salt.

Test system: hypoxia-induced death
Assay: Anoxic Nitrogen Test in Rats (survival after 1 min pure N2)
Format: in vivo, male Sprague-Dawley rats
Conditions: Rattus norvegicus, ip, Table 2; 40 mg/kg ip; read-out: Rating (survival)
Description: Most specifically, administration of the compounds of Formula I results in protecting against hypoxia-induced death in an anoxic nitrogen test in rats. This particular test identifies the neuro-protective effects of substances against lethal brain damages produced by a lack of oxygen consumption (anoxia). In this test procedure, control animals exposed for one minute to a pure nitrogen atmosphere will expire because of respiratory failure caused by irreversible damage to the brain respiratory center.
The animals utilized are male Sprague-Dawley rats (200-240 grams) housed four animals per cage in a normal controlled environment with unlimited access to food and water. Usually there are 8 animals per dose, however, 4 animals can be employed to obtain an initial impression of a compound's activity. Animals surviving the anoxic insult are sacrificed via CO2 inhalation following completion of the observation session (2 hr).
[…] The anoxic episode consists of placing up to 4 animals in the sealed test chamber (10" l×10" w×6" h) continuously flushed with pure N2 (4.5 grade) at a flow rate of 3 SCFM for 1 min. Animals are then promptly removed to normal atmosphere and observed for the 2 hour time period. Typically, animals become disoriented within 15 sec which leads into convulsions at 30 to 35 sec after which they remain motionless.
In spite of the fact that after the N2 exposure the heart is still beating, all control animals fail to gasp when removed from the chamber and usually expire within 3 minutes. Drug treated animals, however, still gasp or start gasping after being removed which is a good indication if an animal will survive the N2 exposure (1).
Results are recorded as: [formula] and are statistically evaluated using the Finney Dose Response program for determination of the ED50 and its corresponding 95% confidence limits.
Compounds of the present invention were rated at each dose level tested using the following rating scale:
+=weak activity (up to 25% survival)
++=moderate activity (25-50% survival)
+++=good activity (51-75% survival)
++++=very good activity (76-100%)

First: O=C(NC(CCCN1CCN(c2ncc(F)cn2)CC1)c1ccc(F)cc1)c1ccc(F)cc1 (centres unmarked) [Example 19, 1-[4-(4-Fluorobenzamido)-4-(4-fluorophenyl)butyl]-4-(5-fluoro-2-pyrimidinyl)piperazine]
Second: CC(=O)NC(CCCN1CCN(c2ncc(F)cn2)CC1)c1ccc(F)cc1 (centres unmarked) [Example 18, 1-[4-Acetamido-4-(4-fluorophenyl)butyl]-4-(5-fluoro-2-pyrimidinyl)piperazine monohydrochloride]
The responders at 40 mg/kg of the first is higher: 76 to 100% for the first, under 25% for the second.

Compared with `O=C(CCCN1CCN(c2ncc(F)cn2)CC1)c1cccs1` [Example 12, 1-(2-Thienyl)-4-[4-(5-fluoro-2-pyrimidinyl)-1-piperazinyl]butanone], `O=C(CCCN1CCN(c2ncc(F)cn2)CC1)c1ccc(F)c2ccccc12` [Example 13, 1-(4-Fluoronaphth-1-yl)-4-[4-(5-fluoro-2-pyrimidinyl)-1-piperazinyl]butanon] is higher in responders at 40 mg/kg: under 25% for the first, 25 to 50% for the second.

`O=S(=O)(CCCN1CCN(c2ncc(F)cn2)CC1)c1ccc(F)cc1` [Example 21, 1-[3-(4-Fluorophenylsulfonyl)propyl]-4-(5-fluoro-2-pyrimidinyl)piperazine] and `Fc1cnc(N2CCN(CCCC3OCCO3)CC2)nc1` [Example 11, 1-[3-(1,3-dioxolan-2-yl)propyl]-4-(5-Fluoro-2-pyrimidinyl) piperazine] cannot be ordered by responders at 40 mg/kg: under 25% for the first, under 25% for the second.

Same assay, conditions: Rattus norvegicus, ip, Table 2; 80 mg/kg ip; read-out: Rating (survival)

`O=S(=O)(NC(CCCN1CCN(c2ncc(F)cn2)CC1)c1ccc(F)cc1)c1ccc(F)cc1` (centres unmarked) [Example 20, 1-[4-(4-Fluorophenyl)-4-(4-fluorophenylsulfonamido)butyl]-4-(5-fluoro-2-pyrimidinyl)piperazine] and `O=C(CCCN1CCN(c2ncc(F)cn2)CC1)c1ccc(F)c2ccccc12` [Example 13, 1-(4-Fluoronaphth-1-yl)-4-[4-(5-fluoro-2-pyrimidinyl)-1-piperazinyl]butanon] fall in the same range of responders at 80 mg/kg: 76 to 100% for the first, 76 to 100% for the second.

`OC(CCCN1CCN(c2ncc(F)cn2)CC1)C1CCCCC1` (centres unmarked) [Example 22, 1-Cyclohexyl-4-[4-(5-fluoro-2-pyrimidinyl)-1-piperazinyl]butanol] gave a responders at 80 mg/kg of 51 to 75%.

Same assay, conditions: Rattus norvegicus, ip, Table 2; 100 mg/kg ip; read-out: Rating (survival)

Molecule `OC(CCCN1CCN(c2ncc(F)cn2)CC1)c1ccc(F)c2ccccc12` (centres unmarked) [Example 23, 1-(4-Fluoronaphth-1-yl)-4-[4-(5-fluoro-2-pyrimidinyl)-1-piperazinyl]butanol] has a responders at 100 mg/kg of 76 to 100%.

Same assay, conditions: Rattus norvegicus, ip, Table 3; 40 mg/kg i.p. 60 minutes prior to anoxia testing; read-out: Anti-ischemic Rating

`O=C(NC(CCCN1CCN(c2ncc(F)cn2)CC1)c1ccc(F)cc1)c1ccc(F)c2ccccc12` (centres unmarked) [Example 44] and `O=C(NC(CCCN1CCN(c2ncc(F)cn2)CC1)c1ccc(F)c2ccccc12)c1ccc(F)cc1` (centres unmarked) [Example 26] fall in the same range of responders at 40 mg/kg: 25 to 50% for the first, 25 to 50% for the second.

First: Fc1cnc(N2CCN(CCCCC3CCCCC3)CC2)nc1 [Example 31]
Second: O=C(CCCN1CCN(c2ncc(F)cn2)CC1)C1CCCCC1 [Example 48]
The responders at 40 mg/kg of the first is lower: 25 to 50% for the first, 76 to 100% for the second.

First: O=C(NC(CCCN1CCN(c2ncc(F)cn2)CC1)C1CCCCC1)c1ccc(F)cc1 (centres unmarked) [Example 49]
Second: O=S(=O)(NC(CCCN1CCN(c2ncc(F)cn2)CC1)C1CCCCC1)c1ccc(F)cc1 (centres unmarked) [Example 30]
The responders at 40 mg/kg of the first is lower: under 25% for the first, 25 to 50% for the second.

`O=C(OC(CCCN1CCN(c2ncc(F)cn2)CC1)c1ccc(F)cc1)c1ccccc1` (centres unmarked) [Example 46] and `O=C(NC(CCCN1CCN(c2ncc(F)cn2)CC1)c1ccc(F)cc1)c1ccccc1` (centres unmarked) [Example 43] fall in the same range of responders at 40 mg/kg: 25 to 50% for the first, 25 to 50% for the second.

Compared with `Fc1cnc(N2CCN(CCCCc3ccc(F)c4ccccc34)CC2)nc1` [Example 28], `O=S(=O)(NC(CCCN1CCN(c2ncc(F)cn2)CC1)c1ccc(F)c2ccccc12)c1ccc(F)cc1` (centres unmarked) [Example 45] is lower in responders at 40 mg/kg: 51 to 75% for the first, under 25% for the second.

With `Fc1ccc(CCN2CCN(c3ncc(F)cn3)CC2)cc1` [Example 47] the responders at 40 mg/kg was under 25%.

Same assay, conditions: Rattus norvegicus, ip; 40 mg/kg ip; read-out: Anti-ischemic Rating

First: OC(CCCN1CCN(c2ncc(F)cn2)CC1)(c1ccc(F)cc1)C1CCCCC1 (centres unmarked) [Example 37, 1-Cyclohexyl-1-(4-fluorophenyl)-4-(4-(5-fluoro-2-pyrimidinyl)-1-piperazinyl)-1-butanol]
Second: COC(CCCN1CCN(c2ncc(F)cn2)CC1)c1ccc(F)cc1 (centres unmarked) [Example 42, 1-[4-(4-Fluorophenyl)-4-methoxybutyl]-4-(5-fluoropyrimidin-2-yl) piperazine hydrochloride]
The responders at 40 mg/kg of the first is higher: 51 to 75% for the first, 25 to 50% for the second.

First: NC(CCCN1CCN(c2ncc(F)cn2)CC1)c1ccc(F)c2ccccc12 (centres unmarked) [Example 41, 1-(4-Fluoro-1-naphthyl)-4-(4-(5-fluoro-2-pyrimidinyl)-1-piperazinyl) butylamine hydrochloride]
Second: [N-]=[N+]=NC(CCCN1CCN(c2ncc(F)cn2)CC1)c1ccc(F)c2ccccc12 (centres unmarked) [Example 40, 1-(4-Azido-4-(4-fluoro-1-naphthyl)-1-butyl)-4-(5-fluoro-2-pyrimidinyl)piperazine monohydrochloride]
The responders at 40 mg/kg of the first is higher: 76 to 100% for the first, 25 to 50% for the second.

With `O=C(OC(CCCN1CCN(c2ncc(F)cn2)CC1)c1ccc(F)cc1)c1ccc(F)cc1` (centres unmarked) [Example 39, 1-(4-Fluorophenyl)-4-(4-(5-fluoro-2-pyrimidinyl)-1-piperazinyl)-1-butyl 4-fluorobenzoate hydrochloride] the responders at 40 mg/kg was 51 to 75%.

Same assay, conditions: Rattus norvegicus; Table 2; "^ 40^a" mg/kg ip, given 60 minutes prior to anoxia testing; read-out: Rating (survival)

With `Fc1ccc(SCCCN2CCN(c3ncc(F)cn3)CC2)cc1` [Example 10, 1-[3-(4-Fluorophenylthio)propyl]-4-(5-fluoro-2-pyrimidinyl) piperazine] the responders at 40 mg/kg was under 25%.

Same assay, conditions: Rattus norvegicus; ip; anoxic nitrogen test, 2 hr observation; 95% confidence limits in brackets; read-out: ED50 (19/20 C.L)

Point of comparison: `CN(c1nc2ccccc2s1)C1CCN(CC(O)COc2ccc(F)cc2)CC1` (centres unmarked) [Sabeluzole], ED50 4.7 mg/kg. Against it:
- C[C@]12N[C@H](Cc3ccccc31)c1ccccc12 [(+)MK-801, reference compound] — 1.5-fold lower, 3.1 mg/kg

Test system: not given
Assay: not given
Conditions: Wauquier et al., Drug Development Research 8/373-380 (1986); cited from earlier work

In the case of `CN(c1nc2ccccc2s1)C1CCN(CC(O)COc2ccc(F)cc2)CC1` (centres unmarked) [Sabeluzole], the anticonvulsant properties is given as “anticonvulsant properties”.

For `CN(c1nc2ccccc2s1)C1CCN(CC(O)COc2ccc(F)cc2)CC1` (centres unmarked) [Sabeluzole], the antihypoxic activity is given as “potent antihypoxic agent”.

Test system: animal models of stroke and brain infarction
Assay: not given
Conditions: Gotti et al., JPET 247/3, 1211-1221 (1988); cited from earlier work

For `CC(C(O)c1ccc(O)cc1)N1CCC(Cc2ccccc2)CC1` (centres unmarked) [ifenprodil], the tissue sparing is given as “effective in tissue sparing”.
